Source: patent publication US10123995B2, “Factor XIa inhibitors” (MERCK SHARP & DOHME CORP., priority 2015, dated 2018)

Assays:
[1] = biological target: purified human Factor XIa (Homo sapiens (Human), UniProt P03951); assay: Factor XIa Assay; type: biochemical; conditions: Factor XIa inhibition; substrate Z-Gly-Pro-Arg-AFC, pH 7.4; read-out: hFXIa IC50
Description: The effectiveness of a compound of the present invention as an inhibitor of Coagulation Factor XIa can be determined using a relevant purified serine protease, and an appropriate synthetic substrate. The rate of hydrolysis of the chromogenic or fluorogenic substrate by the relevant serine protease was measured both in the absence and presence of compounds of the present invention. Assays were conducted at room temperature or at 37° C. […] A decrease in the rate of fluorescence change in the presence of inhibitor is indicative of enzyme inhibition. Such methods are known to one skilled in the art. […]
Factor XIa determinations were made in 50 mM HEPES buffer at pH 7.4 containing 150 mM NaCl, 5 mM CaCl2, and 0.1% PEG 8000 (polyethylene glycol; JT Baker or Fisher Scientific). Determinations were made using purified human Factor XIa at a final concentration of 40 pM (Sekisui Diagnostics) and the synthetic substrate, Z-Gly-Pro-Arg-AFC, TFA salt (Sigma #C0980) at a concentration of 100 μM.
Activity assays were performed by diluting a stock solution of substrate at least tenfold to a final concentration ≤0.1 Km into a solution containing enzyme or enzyme equilibrated with inhibitor. Times required to achieve equilibration between enzyme and inhibitor were determined in control experiments. Initial velocities of product formation in the absence (Vo) or presence of inhibitor (Vi) were measured. Assuming competitive inhibition, and that unity is negligible compared Km/[S], [I]/e, and [I]/e (where [S], [I], and e respectively represent the total concentrations, of substrate, inhibitor and enzyme), the equilibrium constant (Ki) for dissociation of the inhibitor from the enzyme can be obtained from the dependence of Vo/Vi on [I] shown in the following equation. Vo/Vi=1+[I]/Ki

[2] = biological target: purified Human plasma kallikrein (Homo sapiens (Human), UniProt P03952); assay: Kallikrein Assay; type: biochemical; conditions: table titled Kalikrein inhibition (column head prints hFXIa), substrate Acetyl-K-P-R-AFC, pH 7.4
Description: The effectiveness of a compound of the present invention as an inhibitor of Kallikrein can be determined using a relevant purified serine protease, and an appropriate synthetic substrate. The rate of hydrolysis of the chromogenic or fluorogenic substrate by the relevant serine protease was measured both in the absence and presence of compounds of the present invention. Assays were conducted at room temperature or at 37° C. […] A decrease in the rate of fluorescence change in the presence of inhibitor is indicative of enzyme inhibition. Such methods are known to one skilled in the art. The results of this assay are expressed as the inhibitory constant, Ki.
Kallikrein determinations were made in 50 mM HEPES buffer at pH 7.4 containing 150 mM NaCl, 5 mM CaCl2, and 0.1% PEG 8000 (polyethylene glycol; Fisher Scientific). Determinations were made using purified Human plasma kallikrein at a final concentration of 0.5 nM (Enzyme Research Laboratories) and the synthetic substrate, Acetyl-K-P-R-AFC (Sigma # C6608) at a concentration of […].
Activity assays were performed by diluting a stock solution of substrate at least tenfold to a final concentration ≤0.2 Km into a solution containing enzyme or enzyme equilibrated with inhibitor. Times required to achieve equilibration between enzyme and inhibitor were determined in control experiments. The reactions were performed under linear progress curve conditions and fluorescence increase measured at 405 Ex/510 Em nm. Values were converted to percent inhibition of the control reaction (after subtracting 100% Inhibition value). IC50 was determined by inflection point from a four parameter logistic curve fit. Ki was calculated using the Cheng Prusoff equation, Ki=IC50/(1+([S]/Km)).

Sequence of purified Human plasma kallikrein (P03952 391-638): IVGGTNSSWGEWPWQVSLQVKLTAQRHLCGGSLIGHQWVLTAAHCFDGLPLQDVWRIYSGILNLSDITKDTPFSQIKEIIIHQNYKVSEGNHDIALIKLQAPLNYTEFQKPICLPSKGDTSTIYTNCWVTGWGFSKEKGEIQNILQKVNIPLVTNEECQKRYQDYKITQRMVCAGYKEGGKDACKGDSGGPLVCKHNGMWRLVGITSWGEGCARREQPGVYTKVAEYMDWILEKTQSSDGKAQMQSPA
Sequence of purified Human plasma kallikrein (P03952 20-390 partner): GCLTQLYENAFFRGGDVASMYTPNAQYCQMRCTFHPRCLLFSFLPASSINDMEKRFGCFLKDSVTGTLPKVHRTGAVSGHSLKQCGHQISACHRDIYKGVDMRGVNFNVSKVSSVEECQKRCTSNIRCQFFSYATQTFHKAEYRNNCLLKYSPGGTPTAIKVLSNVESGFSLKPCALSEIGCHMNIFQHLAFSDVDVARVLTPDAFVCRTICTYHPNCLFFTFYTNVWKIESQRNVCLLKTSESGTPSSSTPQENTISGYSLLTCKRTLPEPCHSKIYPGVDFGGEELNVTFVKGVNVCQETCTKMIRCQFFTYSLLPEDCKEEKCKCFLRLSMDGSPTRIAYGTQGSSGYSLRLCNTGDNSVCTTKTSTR
Sequence of purified human Factor XIa (P03951 388-625): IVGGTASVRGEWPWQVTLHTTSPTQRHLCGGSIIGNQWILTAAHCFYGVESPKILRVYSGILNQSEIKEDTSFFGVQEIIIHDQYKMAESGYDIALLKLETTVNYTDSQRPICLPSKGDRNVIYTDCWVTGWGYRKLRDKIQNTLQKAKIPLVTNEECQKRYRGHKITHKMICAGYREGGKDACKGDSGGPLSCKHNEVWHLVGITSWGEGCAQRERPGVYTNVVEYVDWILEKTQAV
Sequence of purified human Factor XIa (P03951 19-387 partner): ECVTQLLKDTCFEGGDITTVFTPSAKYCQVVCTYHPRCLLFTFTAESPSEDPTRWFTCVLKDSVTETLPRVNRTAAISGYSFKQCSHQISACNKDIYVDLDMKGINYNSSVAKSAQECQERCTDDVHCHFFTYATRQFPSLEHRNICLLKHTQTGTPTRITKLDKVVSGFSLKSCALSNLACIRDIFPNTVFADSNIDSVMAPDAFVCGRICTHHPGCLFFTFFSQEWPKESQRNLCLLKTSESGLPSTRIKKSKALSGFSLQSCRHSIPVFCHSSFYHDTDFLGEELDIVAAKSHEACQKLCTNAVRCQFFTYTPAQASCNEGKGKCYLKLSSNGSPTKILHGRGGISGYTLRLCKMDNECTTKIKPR

Row | SMILES | IC50 [1] | IC50 [2]
1 | O=C(O)c1ccc(NC(=O)C2(CC3CC3)CCc3cc(-c4cc(Cl)ccc4-n4cnnn4)c[n+]([O-])c32)cc1 (single isomer, unassigned) [Example 22, 7-((4-carboxyphenyl)carbamoyl)-3-(5-chloro-2-(1H-tetrazol-1-yl)phenyl)-7-(cyclopropylmethyl)-6,7-dihydro-5H-cyclopenta[b]pyridine 1-oxide] | 0.178 µM | 
2 | O=C(O)c1ccc(NC(=O)C2(F)CC(F)c3cc(-c4cc(Cl)ccc4-n4cnnn4)c[n+]([O-])c32)cc1 (single isomer, unassigned) [Example 18, 4-[({3-[5-Chloro-2-(1H-tetrazol-1-yl)phenyl]-5,7-difluoro-1-oxido-6,7-dihydro-5H-cyclopenta[b]pyridin-7-yl}carbonyl)amino]benzoic acid] | 9.45 µM | 
3 | O=C(O)c1ccc(NC(=O)C2(O)CC(F)c3cc(-c4cc(Cl)ccc4-n4cnnn4)c[n+]([O-])c32)cc1 (single isomer, unassigned) [Example 14, 4-[({3-[5-Chloro-2-(1H-tetrazol-1-yl)phenyl]-5-fluoro-7-hydroxy-1-oxido-6,7-dihydro-5H-cyclopenta[b]pyridin-7-yl}carbonyl)amino]benzoic acid] | 0.219 µM | 
4 | O=C(O)c1ccc(NC(=O)C2(F)CC(F)c3cc(-c4cc(Cl)ccc4-n4cnnn4)c[n+]([O-])c32)cc1 (single isomer, unassigned) [Example 16, 4-[({3-[5-Chloro-2-(1H-tetrazol-1-yl)phenyl]-5,7-difluoro-1-oxido-6,7-dihydro-5H-cyclopenta[b]pyridin-7-yl}carbonyl)amino]benzoic acid] | 0.0856 µM | 
5 | O=C(O)c1ccc(NC(=O)C2(O)CC(O)c3cc(-c4cc(Cl)ccc4-n4cnnn4)c[n+]([O-])c32)cc1 (single isomer, unassigned) [Example 12, 4-[({3-[5-Chloro-2-(1H-tetrazol-1-yl)phenyl]-5,7-dihydroxy-1-oxido-6,7-dihydro-5H-cyclopenta[b]pyridin-7-yl}carbonyl)amino]benzoic acid] | 0.202 µM | 
6 | O=C(O)c1ccc(NC(=O)C2(O)CC(O)c3cc(-c4cc(Cl)ccc4-n4cnnn4)c[n+]([O-])c32)cc1 (single isomer, unassigned) [Example 9, 4-[({3-[5-Chloro-2-(1H-tetrazol-1-yl)phenyl]-5,7-dihydroxy-1-oxido-6,7-dihydro-5H-cyclopenta[b]pyridin-7-yl}carbonyl)amino]benzoic acid] | 0.0029 µM | 0.46 µM
7 | O=C(O)c1ccc(NC(=O)C2(O)CC(O)c3cc(-c4cc(Cl)ccc4-n4cnnn4)c[n+]([O-])c32)cc1 (single isomer, unassigned) [Example 11, 4-[({3-[5-Chloro-2-(1H-tetrazol-1-yl)phenyl]-5,7-dihydroxy-1-oxido-6,7-dihydro-5H-cyclopenta[b]pyridin-7-yl}carbonyl)amino]benzoic acid] | 0.104 µM | 
8 | O=C(O)c1ccc(NC(=O)C2(F)CC(F)c3cc(-c4cc(Cl)ccc4-n4cnnn4)c[n+]([O-])c32)cc1 (single isomer, unassigned) [Example 17, 4-[({3-[5-Chloro-2-(1H-tetrazol-1-yl)phenyl]-5,7-difluoro-1-oxido-6,7-dihydro-5H-cyclopenta[b]pyridin-7-yl}carbonyl)amino]benzoic acid] | 4.44 µM | 
9 | O=C(O)c1ccc(NC(=O)C2CCc3cc(-c4cc(Cl)ccc4-n4cnnn4)c[n+]([O-])c32)cc1 (stereo not shown) [Example 1, 4-[({3-[5-chloro-2-(1H-tetrazol-1-yl)phenyl]-1-oxido-6,7-dihydro-5H-cyclopenta[b]pyridin-7-yl}carbonyl)amino]benzoic acid] | 0.0038 µM | 0.473 µM
10 | O=C(O)c1ccc(NC(=O)C2CC(O)c3cc(-c4cc(Cl)ccc4-n4cnnn4)c[n+]([O-])c32)cc1 (single isomer, unassigned) [Example 7] | 0.0086 µM | 1.72 µM
11 | O=C(O)c1ccc(NC(=O)[C@H]2CCc3cc(-c4c(F)ccc(Cl)c4F)c[n+]([O-])c32)cc1 [Example 3, 4-({[(7S)-3-(3-chloro-2,6-difluorophenyl)-1-oxido-6,7-dihydro-5H-cyclopenta[b]pyridin-b7-yl]carbonyl}amino)benzoic acid] | 2.92 µM | 
12 | O=C(O)c1ccc(NC(=O)C2(F)CC(F)c3cc(-c4cc(Cl)ccc4-n4cnnn4)c[n+]([O-])c32)cc1 (single isomer, unassigned) [Example 15, 4-[({3-[5-Chloro-2-(1H-tetrazol-1-yl)phenyl]-5,7-difluoro-1-oxido-6,7-dihydro-5H-cyclopenta[b]pyridin-7-yl}carbonyl)amino]benzoic acid] | 0.0141 µM | 4.92 µM
13 | O=C(O)c1ccc(NC(=O)[C@@H]2CCc3cc(-c4c(F)ccc(Cl)c4F)c[n+]([O-])c32)cc1 [Example 4, 4-({[(7R)-3-(3-chloro-2,6-difluorophenyl)-1-oxido-6,7-dihydro-5H-cyclopenta[b]pyridin-7-yl]carbonyl}amino)benzoic acid] | 2.37 µM | 
14 | O=C(O)c1ccc(NC(=O)C2(O)CC(O)c3cc(-c4cc(Cl)ccc4-n4cnnn4)c[n+]([O-])c32)cc1 (stereo not shown) [Example 8, 4-[({3-[5-Chloro-2-(1H-tetrazol-1-yl)phenyl]-5,7-dihydroxy-1-oxido-6,7-dihydro-5H-cyclopenta[b]pyridin-7-yl}carbonyl)amino]benzoic acid] | 0.0042 µM | 0.816 µM
15 | O=C(O)c1ccc(NC(=O)C2CC(O)c3cc(-c4cc(Cl)ccc4-n4cnnn4)c[n+]([O-])c32)cc1 (racemic) [Example 6, 4-[({3-[5-chloro-2-(1H-tetrazol-1-yl)phenyl]-5-hydroxy-1-oxido-6,7-dihydro-5H-cyclopenta[b]pyridin-7-yl}carbonyl)amino]benzoic acid] | 0.0105 µM | 0.7 µM
16 | O=C(O)c1ccc(NC(=O)C2CC(O)c3cc(-c4cc(Cl)ccc4-n4cnnn4)c[n+]([O-])c32)cc1 (single isomer, unassigned) [Example 5] | 0.0036 µM | 0.504 µM
17 | O=C(NC12CCC(C(=O)O)(CC1)CC2)C1CCc2cc(-c3cc(Cl)ccc3-n3cnnn3)c[n+]([O-])c21 (stereo not shown) [Example 2, 7-((4-carboxybicyclo[2.2.2]octan-1-yl)carbamoyl)-3-(5-chloro-2-(1H-tetrazol-1-yl)phenyl)-6,7-dihydro-5H-cyclopenta[b]pyridine=1-oxide] | 2 µM | 
18 | O=C(O)c1ccc(NC(=O)C2(O)CC(O)c3cc(-c4cc(Cl)ccc4-n4cnnn4)c[n+]([O-])c32)cc1 (single isomer, unassigned) [Example 10, 4-[({3-[5-Chloro-2-(1H-tetrazol-1-yl)phenyl]-5,7-dihydroxy-1-oxido-6,7-dihydro-5H-cyclopenta[b]pyridin-7-yl}carbonyl)amino]benzoic acid] | 0.0027 µM | 0.53 µM
19 | O=C(O)c1ccc(NC(=O)C2(CC3CC3)CCc3cc(-c4cc(Cl)ccc4-n4cnnn4)c[n+]([O-])c32)cc1 (single isomer, unassigned) [Example 21, 7-((4-carboxyphenyl)carbamoyl)-3-(5-chloro-2-(1H-tetrazol-1-yl)phenyl)-7-(cyclopropylmethyl)-6,7-dihydro-5H-cyclopenta[b]pyridine 1-oxide] | > 0.87 µM | 
20 | COC(=O)Nc1ccc(C(=O)NC2CCc3cc(-c4cc(Cl)ccc4-n4cnnn4)c[n+]([O-])c32)cc1 (stereo not shown) [Example 20, 3-(5-Chloro-2-(H-tetrazol-1-yl)phenyl)-7-(4-((methoxycarbonyl)amino)benzamido)-6,7-dihydro-5H-cyclopenta[b]pyridine 1-oxide] | 0.894 µM | 
